Each structure is given as a SMILES string.

We go through eight compounds from patent US6642365B1, “Anti-(retro)viral conjugates of saccharides and acetamidino or guanidino compounds” (Yeda Research and Development Co. Ltd., priority 2001, dated 2003).

The test system of test [1] is TAR RNA. Kind of test: L-arginine-Amberlite affinity column elution of TAR RNA. The format is binding, HIV-1. The conditions noted are these: concentration that elutes 50% of TAR RNA from L-arginine-Amberlite affinity column. On the procedure: (§1) The model Tat peptide (R52: […]) was prepared by the Weizmann Institute Chemical Services and was purified by reverse phase HPLC (C-18) (Lapidot et al., 1995). […] The RNA was transcriptionally labeled with α-^32P UTP, purified on a 12% polyacrylamide/7M urea gel (19:1 acrylamide:bis-acrylamide) and was eluted from the gel by 0.5M ammonium acetate, 10 mM magnesium acetate, 1 mM EDTA and 0.1% SDS. The sample was subjected to phenol extraction and the RNA was precipitated from 70% ethanol. Purified RNA was dissolved in diethyl pyrocarbonate-treated water (DEPC water), its concentration was determined by UV absorption at 260 nm and the specific radioactivity was determined by scintillation counting on a LS 1701 “Bruker” counter.
The L-arginine-Amberlite resin was prepared as follows: Carboxyl groups of Amberlite IRC-50 resin were covalently modified with ethanolamine using 1-(3-dimethylaminopropyl) 3-ethylcarbodiimide, a water-soluble coupler. The hydroxy ethyleneamide resin obtained was washed and dried, and L-arginine (12-16 μmols per ml of resin) was coupled to the hydroxy groups of the resin via an isourea moiety using a standard cyanogen bromide protocol. The final concentration of arginine residues was 12-16 μmol per ml of resin. The swollen L-arginino-Amberlite resin (200 μl) was packed into a plastic mini-column and equilibrated with buffer containing 40 mM Tris HCl, pH 7.5, 250 mM NaCl, 0.5 mM EDTA and 5 mM MgCl2 (buffer A). Approximately 1 ng of ^32P-UTP labeled TAR RNA in buffer A was loaded on the column. The column was eluted 3 to 5 times with 400 μl portions of buffer A, until no radioactivity was detected in the eluent. […] Each of the test compounds was dissolved in buffer A and passed through the column in 300 μl portions. Radioactivity of the eluates was determined by scintillation counting on a LS 1701 “Bruker” counter. CE50 values, the concentrations of inhibitors eluting 50% of the radioactive material from the column, were determined.

The next test deals with Tat-TAR interaction. Kind of test: Gel-shift inhibition of Tat R52 peptide binding to TAR RNA. Also noted: species or system HIV-1. The conditions noted are these: for IC50: TAR RNA 6 nM, 60 nM Tat R52, read-out: CI50 (the source's name); for Ki: CI50 normalized to the conditions of Tao and Frankel, 1992, read-out: apparent Ki. On the procedure: The model Tat peptide (R52: […]) was prepared by the Weizmann Institute Chemical Services and was purified by reverse phase HPLC (C-18) (Lapidot et al., 1995). A 31-nt TAR RNA fragment (5′-GGCCAGAUCUGAGCCUGGGAGCUCUCUGGCC-3′) containing the sequence 18-44 of the HIV LTR (Aboul-Ela et al., 1995) was transcribed in vitro by T7 RNA polymerase (Promega) from a synthetic single strand DNA template containing the 17 base double-stranded T7 promoter (both DNA oligonucleotides were prepared by the Weizmann Institute Chemical Services). The RNA was transcriptionally labeled with α-^32P UTP, purified on a 12% polyacrylamide/7M urea gel (19:1 acrylamide:bis-acrylamide) and was eluted from the gel by 0.5M ammonium acetate, 10 mM magnesium acetate, 1 mM EDTA and 0.1% SDS. The sample was subjected to phenol extraction and the RNA was precipitated from 70% ethanol. Purified RNA was dissolved in diethyl pyrocarbonate-treated water (DEPC water), its concentration was determined by UV absorption at 260 nm and the specific radioactivity was determined by scintillation counting on a LS 1701 “Bruker” counter.
To study the affinity of the test compounds to TAR, gel-shift and gel-shift inhibition experiments were performed. The binding reaction mixtures (20 μl) contained ^32P-labeled TAR (18-44) RNA oligonucleotide (3-6 nM) and Tat R52 peptide (35-75 nM) in a binding buffer (10 mM Tris-HCl pH 7.5, 70 mM NaCl, 0.2 mM EDTA and 5% glycerol). The reaction mixtures were incubated for 10 minutes on ice and resolved by electrophoresis on a 10% non-denaturing polyacrylamide gel (40:1 acrylamide:bis-acrylamide) at 200V, for 3 h at 4° C. Gels were dried and visualized by autoradiography. Quantitations were obtained by optical densitometry of films. Alternatively, results were visualized by exposing the wet gels to Fuji phosphoimager plates, which were read on a “Storm 820” (Molecular Dynamics) phosphoimager. Different concentrations of TAR RNA (6,12 and 20 nM) were titrated with various concentrations of Tat R52 in the binding reactions.
Binding inhibition by the monosaccharide derivatives was measured by adding several concentrations of each compound to reaction mixtures containing 60 nM Tat 52 and 6 nM ^32P TAR, attaining 100% binding of Tat TAR in the absence of inhibitors (Lapidot et al., 1995).

The subject of test [2] is TAR RNA. The experiment in a line: Gel-shift binding to TAR RNA. Also noted: species or system HIV-1. As to the method: as §1
To study the affinity of the test compounds to TAR, gel-shift and gel-shift inhibition experiments were performed. The binding reaction mixtures (20 μl) contained ^32P-labeled TAR (18-44) RNA oligonucleotide (3-6 nM) and Tat R52 peptide (35-75 nM) in a binding buffer (10 mM Tris-HCl pH 7.5, 70 mM NaCl, 0.2 mM EDTA and 5% glycerol). The reaction mixtures were incubated for 10 minutes on ice and resolved by electrophoresis on a 10% non-denaturing polyacrylamide gel (40:1 acrylamide:bis-acrylamide) at 200V, for 3 h at 4° C. Gels were dried and visualized by autoradiography. Quantitations were obtained by optical densitometry of films. Alternatively, results were visualized by exposing the wet gels to Fuji phosphoimager plates, which were read on a “Storm 820” (Molecular Dynamics) phosphoimager. […]
Binding of aminoglycoside-arginine conjugates (AAC) to TAR RNA was measured by adding varying concentrations of each conjugate to reaction mixtures (20 μl) which contained 12 nM ^32P-labeled TAR RNA. The reactions were analyzed as described above.

The test system of test [3] is TAR RNA. The experiment in a line: RNase A footprinting of TAR RNA. In kind it is binding, HIV-1. On the procedure:
In a typical experiment 10 μl of 5 mM cacodylate buffer pH 6.5, containing 25 mM KCl and 50-100 ng 5′ ^32P-labeled TAR RNA (approximately 0.5-1 μM) were incubated with 200 pM RNase A (Sigma) at room temperature for 10 minutes in the presence of Tat R52 and the conjugates of the invention at various concentrations. In the competition experiments, the mixture was supplemented with 0.5 μg yeast tRNA (Sigma). After the incubation, 10 μl of formamide/bromphenol blue loading buffer was added to the samples. The samples were heated to 80° C. for 2 min and were resolved by electrophoresis on 40 cm×0.8 mm 20% polyacrylamide denaturing gel (7M urea) for 3 hours at 55° C. The results were visualized by a phosphoimager as described above and quantitated using ImageQuant software.
TAR RNA and RNase A concentrations were established by co-titration. To produce a “single-hit” kinetics conditions, 1 μM TAR versus 200 pM RNase A were selected. Tat R52 and AAC concentrations were determined by titration. […] RNase A cleaved TAR RNA in an uneven manner (FIG. 4A., lane 2). The most susceptible regions for cleavage were the single-stranded loop, nucleotides U31-G34 as well as C24 and U25 of the bulge. Strong cleavage was also observed at G21-G41 and A20-U42 pairs (lower stem). Binding of R52 (2-4 μM) caused a weakening of the bands in the upper stem region, (G26-C39, A27-C38, as well as U40) (FIG. 4A., lanes 3, 4). At 4 μM R52, the cleavage at G34 (loop) was enhanced, as well as a certain enhancement of bands A20, G21, U23 and U25 was observed. Remarkably, the band corresponding to the R52-TAR complex still was observed on the gels even after electrophoresis under strongly denaturing conditions. In the presence of R4K (10-20 μM), the upper stem (G26-C29), the lower stem and the bulge (G21-U23, partially C24 and U25) were protected as well as C38, C39 and U40. Cleavage at C19 and A20 of the lower stem and C30, G33 and G34 of the loop was enhanced by 10 μM R4K, whereas with 20 μM R4K the protection of C30, G34 and A20-G21 was observed (FIG. 4A., lanes 5, 6). […] Cleavages at C19-A20 in the lower stem as well as at G30 and G34 in the loop were observed (FIG. 4A., lanes 7, 8). In the presence of GB4K (20 μM) no significant protection was observed.

Test [4] has as its system equine infectious anemia virus (EIAV). Kind of test: Antiviral activity in EIAV-infected ED fibroblasts. The format is cell-based. The conditions noted are these: 100-250 μM. On the procedure:
Both equine dermal fibroblasts (ED) and Equine Infectious Anemia Virus (EIAV), Wyoming isolate (Malmquist et al., 1973) were gifts from Profs. A. Yaniv and A. Gazit, from the Sackler Medical School of the Tel-Aviv University, Israel. ED cells were plated on plastic 6-well tissue culture plates (Nunclone) at density of […] per well in 2 ml of DMEM/10% FCS (fetal calf serum). The medium was removed after 12-20 hours and the cells were inoculated for 2 hours with 0.5 ml DMEM/10% FCS containing 5×10^6 pfu (plaque forming units) of EIAV and 10 μg/ml of polybrene (hexadimetrine bromide, Sigma) (Carpenter and Chesebro, 1989). Following the incubation, another 2.5 ml of DMEM/10% FCS was added to each well. […] Every […], 1.2 ml samples of the medium were collected and replaced with same amount of medium, containing radioactive uridine and the tested. The samples were clarified from cell debris by spinning at 12000 rpm for 5 minutes on the Eppendorf centrifuge. Viral particles from the clarified supernatants were collected by ultracentrifugation at 75000 rpm, 4° C. on the Beckman TL 100 centrifuge using TLA 100.2 rotor (Cheevers et al., 1977). The supernatants were carefully discarded and the pellet was resuspended in 200 μl of 1% SDS/5% Tritone X-100, mixed with 1 ml Ultima Gold scintillation liquid (Packard) and counted on LS 1701 Bruker scintillation counter. Typical duration of the experiment was 15 days; EIAV growth curves in the presence of various concentrations of the conjugates in the medium were obtained. Development of the cytopathic effect (cpe) in the infected ED cells was monitored by light microscopy.
Equine infectious anemia virus (EIAV) of Wyoming strain is adapted to grow in equine dermal fibroblasts (ED), without damaging them with a titer of 1 μfu per cell (Malmquist virus). […] In the absence of inhibitors, EIAV proliferated in the ED cells reaching a plato 9-12 days after infection (FIG. 8). […] Development of cpe started 10-12 days after infection, reaching a maximum on days 15-17, followed by rapid cell death and exfoliation from the plastic bottom of the well.

In the test on TAR RNA [1], `CO[C@@H]1O[C@H](C/C(N)=N/O)C(O)[C@H](O)[C@@H]1O` (stereo partly drawn) [compound 9, Methyl 6-deoxy-α-D-mannoheptopyranuronic acid amidoxime] had a CE50 of more than 1500 mM. Moreover, the IC50 on Tat-TAR interaction was more than 50 mM.
`CN[C@@H]1[C@@H](O)[C@@H](O[C@@H]2[C@@H](O)[C@H](O[C@H]3O[C@H](CNC(=O)[C@@H](N)CCCNC(=N)N)CC[C@H]3NC(=O)[C@@H](N)CCCNC(=N)N)[C@@H](NC(=O)[C@@H](N)CCCNC(=N)N)C[C@H]2NC(=O)[C@@H](N)CCCNC(=N)N)OC[C@]1(C)O` [R4GC1a, Tetraargininamido-gentamicin (C1a) conjugate]: the “concentration from which a complex with TAR RNA is formed” value with TAR RNA [2] (20 nM TAR RNA) was not below 200 nM. The CD50 in the test with TAR RNA [2] (50% binding, TAR RNA 20 nM) is on record as 200 nM. Besides, the Kd at TAR RNA [2] (CD50 normalized to the reported conditions (Calnan et al., 1991 b), read-out: apparent Kd) was approximately 20 nM.
For the compound `CO[C@H]1O[C@H](CNC(=N)N)[C@@H](O)[C@H](O)[C@@H]1O` [compound 10, Methyl 6-deoxy-6-guanidino-α-D-mannopyranoside], the CE50 with TAR RNA [1] was 650 mM. Further, at Tat-TAR interaction, the Ki is approximately 1 mM and the IC50 was 9 mM.
With `N=C(N)NCCCC(=O)NC[C@H]1O[C@H](O[C@H]2[C@H](O)[C@@H](O[C@H]3O[C@H](CO)[C@@H](O)[C@H](NC(=O)CCCNC(=N)N)[C@H]3O)[C@H](NC(=O)CCCNC(=N)N)C[C@@H]2NC(=O)CCCNC(=N)N)[C@H](O)[C@@H](O)[C@@H]1O` [GB4K, Tetra-γ-(N-guanidino)butyramido-kanamycin A conjugate], the “binding to TAR RNA in gel-shift experiments” value with TAR RNA [2] (up to 50 μM) is “did not exhibit binding”. For the same compound, in the test on TAR RNA [3] (at 40 μM), the “binding to TAR RNA in protection experiments” value is on record as “did not exhibit binding”. Besides, the “TAR RNA binding, overall assessment” value in the test with TAR RNA [3] (footprinting studies) was “very weak TAR RNA binder”. The “effect on the viral growth” value in test [4] is listed as “did not show any effect”.
Compound `CO[C@H]1O[C@H](CC#N)[C@@H](O)[C@H](O)[C@@H]1O` [compound 4, Methyl 6-deoxy-6-cyano-α-D-mannopyranoside] showed a CE50 in the test with TAR RNA [1] of 1200 mM. Moreover, the IC50 at Tat-TAR interaction is 46 mM.
In the test on TAR RNA [1], `CO[C@@H]1O[C@H](CNC(C)=N)C(O)[C@H](O)[C@@H]1O` (stereo partly drawn) [compound 11, Methyl 6-deoxy-6-(N-acetamidino)-α-D-mannopyranoside] showed a CE50 of 730 mM. Moreover, at Tat-TAR interaction, the Ki was approximately 1 mM and the IC50 was 11 mM.
As to `CO[C@H]1O[C@H](CN)[C@@H](O)[C@H](O)[C@@H]1O` [compound 7, Methyl 6-deoxy-6-amino-α-D-mannopyranoside], the CE50 in the test with TAR RNA [1] is given as more than 1500 mM. The IC50 at Tat-TAR interaction was 56 mM.
For `COC1OC(CNC(=O)C(N)CCCNC(=N)N)C(O)C(O)C1O` [RMMP, Methyl 6-deoxy6-(N-L-argininamido)-α-D-mannopyranoside], in the test on TAR RNA [1], the CE50 is listed as 310 mM. Besides, on Tat-TAR interaction, the Ki is approximately 0.16 mM and the IC50 was found to be 1.8 mM.
